Tests used:
[1] = tested on: Jeko cells engrafted in SCID mice; test: Preclinical model of human MCL in SCID mice, survival; assay type: in vivo, mouse; conditions: n=10/group, from day 15; FTY720 5 mg/kg i.p. daily 2 weeks; antibodies 15 mg/kg i.p. every three days
Description: Evaluation of in vivo therapeutic activity of FTY720 and milatuzumab in the preclinical MCL model. SCID mice were injected i.v. with 40×10^6 JeKo cells and observed daily for signs of tumor burden.
Six to eight-week old female SCID mice (cb17 scid/scid) were purchased from Taconic Farms (Hudson, N.Y.) and maintained in pathogen-free, isolation cages. All animals were depleted of murine NK cells with intra-peritoneal (i.p.) injections of 0.2 mg of rat anti-mouse interleukin-2 receptor β monoclonal antibody (TMβ1) 1 day prior to engraftment with human tumor cell lines and then every week. Forty-eight hours post intravenous injection of 40×10^6 Jeko cells via tail vein, 50 mice were randomly distributed into 10 cages. Animals in groups of ten were treated starting at day 15 after engraftment. […] The third group was treated with FTY720 (5 mg/kg) every day for 2 weeks via i.p. The fourth group received milatuzumab (15 mg/kg) every three days, via i.p. injection. The fifth group received the combination of FTY720 and milatuzumab. Animals were monitored daily for signs of tumor burden, including hind limb paralysis, respiratory distress, weight loss, ruffled coat, and distended abdomen. Body weight was measured weekly for the first 3 weeks and then daily. […]

[2] = tested on: Capan-1, Aspc-1, LoVo, HT-29, U87, U118 cells; test: Cytotoxicity of milatuzumab with and without crosslinking agent or IFN-γ; assay type: cell-based; conditions: regardless of crosslinking agent or IFN-γ
Description: We examined whether the ability of anti-CD74 MAbs to kill cancer cells can be increased by using IFN-γ as an inducer of antigen expression. Using a panel of diverse cancer cell lines (including NHL, MM, GBM, and pancreatic and colonic carcinomas), we examined IFN-γ-induced changes in surface and cytoplasmic CD74 expression. Sensitivity of the malignant cells to milatuzumab was assessed with and without IFN-γ by cytotoxicity assays.
The cytotoxicity of anti-CD74 antibodies was examined in the presence or absence of IFN-γ (not shown). As previously observed, in vitro cytotoxicity of milatuzumab required crosslinking (Stein, et al., Blood, 104: 3705-11, 2004). Goat anti-human IgG (GAH) was used for crosslinking in these experiments.

U87 = test: Flow cytometry of CD74, HLA-DR, CEACAM5 with directly labeled MAbs, with and without IFN-γ; assay type: cell-based
Description: (§1) Expression of CD74, HLA-DR, and carcinoembryonic antigen (CEACAM5) was determined in untreated cells and cells exposed to 200 U of IFN-γ for 48 h by flow cytometry. Cells were stained with directly labeled MAbs in comparison to a directly labeled human IgG control. Antibodies were labeled using ALEXA FLUOR® 488 (Invitrogen, Carlsbad, Calif.). For determination of cytoplasmic antigen expression, cells were permeabilized prior to staining using the BD CYTOFIX/CYTOPERM™ kit (BD Biosciences, San Jose, Calif.).

HT29 = test: as above; assay type: cell-based
Description: as §1

CAG = test: as above; assay type: cell-based
Description: as §1

four MCL cell lines = test: Cell viability by annexin-V/PI staining and flow cytometry, four lines together; assay type: cell-based, human; conditions: Jeko-1, Z-138 and UPN-1 cell lines, 24 hours
Description: FIG. 4. FTY720 sensitizes MCL cell lines and primary patient tumor cells to milatuzumab-mediated cytotoxicity. (A) Four MCL cell lines and primary cells from 6 patients were treated with FTY720 and/or milatuzumab plus cross-linking antibodies at the indicated concentrations. (B) Patient characteristics. (C) Individual patient responses. (D) Representative histograms summarizing patient responses. Cell death was determined by annexin V/PI staining and flow cytometry at 24 hours. Data are shown as the percentage of annexin V−/PI− cells (live cells) and are normalized to untreated controls.
To assess lysosomal volume, FTY720 treated cells were incubated with LYSOTRACKER™ green DND-26. To assess lysosomal membrane permeability, FTY720 treated cells were incubated with acridine orange (MOLECULAR PROBES; INVITROGEN). For analysis of cell viability, MCL cell lines (0.5×10^6/ml) and primary cells (1×10^6/ml) were treated with FTY720, milatuzumab, and the combination of both. […] Cell viability was measured at 24 hours by dual staining with annexin-V FITC and propidium iodide (PI). A total of 10,000 events were collected and analyzed using WinMDI.
The in vitro survival of four MCL cell lines treated with FTY720, milatuzumab in the presence of a cross-linking antibody, and the combination of FTY720 and milatuzumab was determined at 24 hours by annexin-V/PI staining and flow cytometry. […]

[3] = multiple myeloma patients, 1.5 mg/kg twice weekly for 4 weeks; cited from earlier work
human AML cell lines = test: Proliferation assays, milatuzumab with/without IFN-γ; assay type: cell-based
Description: CD74 expression in bone marrow biopsy (BMB) specimens from non-M3 AML patients was evaluated by immunohistochemistry and, for 3 human AML cell lines, by flow cytometry, with/without permeabilization and with/without IFN-γ (40 and 200 U/mL). These cell lines were also tested in proliferation assays for responses to milatuzumab, with/without IFN-γ. In 13/14 BMB specimens, there was moderate to strong CD74 expression by leukemic blasts, which was mostly intracellular, usually with a perinuclear distribution (data not shown). […] IFN-γ induced intracellular CD74 in all 3 lines (from 85%-868%) (not shown).

In the case of “milatuzumab: fully humanized monoclonal antibody specific for CD74”, the median survival [1] was 33.5 days, the cell killing [2] was “unable to kill” and the “% change of cell surface expression with IFNγ” value (U87; U87) was 75.6%. For the same substance, the “% change of cytoplasmic expression with IFNγ” value (U87; U87) was 158.8%, the “Cell surface expression (staining with directly labeled MAb)” value (U87; U87 + IFNγ 200 U, 48 h) was 9.5 and the “Cell surface expression (staining with directly labeled MAb)” value (U87; U87, without IFN-γ) was 5.4. The “% change of cell surface expression with IFNγ” value (HT29; HT29) was 141.1%, the “% change of cytoplasmic expression with IFNγ” value (HT29; HT29) was 1766.6% and the “Cell surface expression (staining with directly labeled MAb)” value (HT29; HT29 + IFNγ 200 U, 48 h) was 8.3. For the same substance, the “Cell surface expression (staining with directly labeled MAb)” value (HT29; HT29, without IFN-γ) was 3.4, the “% change of cell surface expression with IFNγ” value (CAG; CAG) was −5.4% and the “% change of cytoplasmic expression with IFNγ” value (CAG; CAG) was 19.8%. The “Cell surface expression (staining with directly labeled MAb)” value (CAG; CAG + IFNγ 200 U, 48 h) was 39.2, the “Cell surface expression (staining with directly labeled MAb)” value (CAG; CAG, without IFN-γ) was 41.5 and the “activity as single agents” value (four MCL cell lines) was “only modest activity”. For the same substance, the peak levels [3] was 10 to 20 µg/mL, the growth inhibition (human AML cell lines; first responding AML line, with IFN-γ) was 44.8% and the growth inhibition (human AML cell lines; first responding AML line, without IFN-γ) was 23.7%. The growth inhibition (human AML cell lines; second responding AML line, with IFN-γ) was 30.9% and the growth inhibition (human AML cell lines; second responding AML line, without IFN-γ) was −3.9%.

Reference: patent US8591892B2, “FTY720 increases CD74 expression and sensitizes cancer cells to anti-CD74 antibody-mediated cell death” (The Ohio State University, priority 2011, dated 2013)
